Data taken from patent US9828350B2, “5,6-dihydro-2H-[1,4]oxazin-3-yl-amine derivatives useful as inhibitors of beta-secretase (BACE)” (Janssen Pharmaceutica NV, priority 2010, dated 2017).

Legend:
P-gp = target: T1, P-gp (Homo sapiens, UniProt P08183); experiment: Transepithelial transport of test compounds through LLC-MDR1 monolayers; format: in vitro ADME; details: for efflux ratio at 120 min, 1 μM / Papp A→B at 120 min, 1 μM / Papp B→A at 120 min, 1 μM: pig, LLC-PK1; for efflux ratio at 120 min, 1 μM: read-out: BA/AB; for Papp A→B at 120 min, 1 μM: read-out: A to B (Apparent Permeability, Papp); for Papp B→A at 120 min, 1 μM: read-out: B to A (Apparent Permeability, Papp); for A to B (Apparent Permeability, Papp) / B to A (Apparent Permeability, Papp): 1 μM test compound, 120 minutes; for A to B (Apparent Permeability, Papp): apical to basolateral, absence of GF120918; for B to A (Apparent Permeability, Papp): basolateral to apical
T1 construct: expressed in transfected cells; host or cells: LLC-PK1 cells stably transduced with MDR1 (LLC-MDR1)
Experimental: Brief Assay Description for the Measurement of Transepithelial Transport of Test Compounds Through LLC-MDR1 Monolayers
The purpose of this assay was to assess both the in vitro passive permeability of test compounds and their ability to be transported substrates of P-gp using LLC-PK1 cells stably transduced with MDR1 in a trans-well system. The positive control for transport was ^3H-digoxin (30 nM) and the positive control inhibitor was GF120918 (5 μM). The marker compound for low permeability was ^14C-Mannitol (1 μM). The test compound concentration was 1 μM.
The integrity of the cellular monolayer was assessed in each incubation well through the inclusion of the fluorescent, low permeability marker compound, Fluorescein.
In detail, LLC-MDR1 cells were seeded on 24-well cell culture inserts (Millicell®-PCF, 0.4 μm, 13 mm diameter, 0.7 cm^2) at 400,000 cells/cm^2. Cell culture medium consisted of Medium 199 supplemented with 10% Foetal Bovine Serum (FBS) and 100 U/ml Penicillin/streptomycin and was replaced the day after seeding and the day before the experiment. The transport experiment was performed 5 days after seeding. On the day of the experiment, solutions of the test compounds were applied to the apical or basolateral side of the monolayers to assess transport in the A to B and B to A directions, respectively. The medium used in the assay was (OPTI-MEM (1×) (GIBCO) with 1 w/v % Bovine Serum Albumin. Inserts were incubated at 37° C. in a humidified incubator containing 5% CO2. Samples from the acceptor and donor compartments were collected after an incubation time of 120 min, to assess the permeability and to allow estimation of the test compound recovery during the experiment, respectively. Transport experiments were performed in triplicate. Absolute test compound concentrations were measured using LC-MS/MS and quantified via a calibration curve.

[1] = target: recombinant BACE1 protein (Homo sapiens, UniProt P56817); experiment: Biochemical FRET based assay; details: recombinant BACE1 1 μg/ml, 120 minutes at room temperature, pH 5.0; for IC50: read-out: Biochemical FRET based assay pIC50 (converted)
Outline: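 Recombinant BACE1 (1 μg/ml final) was incubated 120 minutes at room temperature with […] Mca/Dnp-labelled 13-mer APP Swedish-mutant peptide in 40 mM citrate pH 5.0, 0.04% PEG, 4% DMSO, with or without compound. Cleavage was measured as fluorescence (ex 320/em 405 nm), given as RFU difference between T120 and T0.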

Abeta total = experiment: Cellular αLisa assay in SKNBE2 cells, Abeta total; format: cell-based, human; details: incubated for 18 hours; for IC50: Homo sapiens, SKNBE2, 18 h, read-out: Cellular αLisa assay in SKNBE2 cells Abetatotal pIC50 (converted)
Outline: (§1)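 Human neuroblastoma SKNBE2 cells expressing wild-type hAPP695 were incubated with compound for 18 hours. Secreted Abeta total and Abeta 1-42 in medium were quantified by sandwich αLisa: biotinylated AbN/25 on streptavidin donor beads with Ab4G8 (total) or cAb42/26 (1-42) acceptor beads. Light emission read after 1 hour (ex 650 nm, em 615 nm).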

Abeta 1-42 = experiment: Cellular αLisa assay in SKNBE2 cells, Abeta 1-42; format: cell-based, human; details: incubated for 18 hours; for IC50: Homo sapiens, SKNBE2, 18 h, read-out: Cellular αLisa assay in SKNBE2 cells Abeta 42 pIC50 (converted)
Outline: as §1

[2] = LLC-MDR1 monolayers, ratio of B to A and A to B permeation rates

T1 sequence (P08183 whole entry): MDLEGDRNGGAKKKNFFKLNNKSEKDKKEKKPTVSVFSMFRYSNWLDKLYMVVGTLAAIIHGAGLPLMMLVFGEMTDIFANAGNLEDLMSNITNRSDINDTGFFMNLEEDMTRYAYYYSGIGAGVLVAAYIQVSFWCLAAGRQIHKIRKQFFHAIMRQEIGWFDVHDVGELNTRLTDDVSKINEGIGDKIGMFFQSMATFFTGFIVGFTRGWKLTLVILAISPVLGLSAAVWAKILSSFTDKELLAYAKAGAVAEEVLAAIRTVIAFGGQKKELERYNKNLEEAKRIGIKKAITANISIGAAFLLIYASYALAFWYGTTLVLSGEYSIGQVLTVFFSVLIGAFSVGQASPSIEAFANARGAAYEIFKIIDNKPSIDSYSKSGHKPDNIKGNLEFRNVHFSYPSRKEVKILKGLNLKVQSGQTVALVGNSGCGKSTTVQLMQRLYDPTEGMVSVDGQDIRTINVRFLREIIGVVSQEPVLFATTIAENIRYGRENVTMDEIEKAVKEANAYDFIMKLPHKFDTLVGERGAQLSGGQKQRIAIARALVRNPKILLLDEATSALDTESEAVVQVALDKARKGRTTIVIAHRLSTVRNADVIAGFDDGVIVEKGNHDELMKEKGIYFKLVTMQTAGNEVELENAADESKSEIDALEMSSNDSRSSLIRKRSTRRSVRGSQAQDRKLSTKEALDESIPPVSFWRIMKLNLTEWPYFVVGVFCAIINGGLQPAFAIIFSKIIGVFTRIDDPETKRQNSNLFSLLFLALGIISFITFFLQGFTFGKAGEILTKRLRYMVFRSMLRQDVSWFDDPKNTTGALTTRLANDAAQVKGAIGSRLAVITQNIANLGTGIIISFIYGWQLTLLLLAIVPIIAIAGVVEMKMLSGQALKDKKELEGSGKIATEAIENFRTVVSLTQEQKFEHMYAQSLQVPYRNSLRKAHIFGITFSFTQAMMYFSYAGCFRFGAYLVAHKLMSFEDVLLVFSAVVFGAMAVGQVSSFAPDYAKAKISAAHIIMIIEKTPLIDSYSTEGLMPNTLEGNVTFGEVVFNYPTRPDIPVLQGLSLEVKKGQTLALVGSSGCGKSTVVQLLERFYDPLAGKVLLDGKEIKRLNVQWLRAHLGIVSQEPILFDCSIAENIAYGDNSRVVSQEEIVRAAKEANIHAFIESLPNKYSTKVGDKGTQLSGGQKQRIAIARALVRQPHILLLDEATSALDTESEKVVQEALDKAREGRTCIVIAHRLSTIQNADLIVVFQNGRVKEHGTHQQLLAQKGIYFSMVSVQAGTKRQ
Chain of recombinant BACE1 protein (P56817 46-501): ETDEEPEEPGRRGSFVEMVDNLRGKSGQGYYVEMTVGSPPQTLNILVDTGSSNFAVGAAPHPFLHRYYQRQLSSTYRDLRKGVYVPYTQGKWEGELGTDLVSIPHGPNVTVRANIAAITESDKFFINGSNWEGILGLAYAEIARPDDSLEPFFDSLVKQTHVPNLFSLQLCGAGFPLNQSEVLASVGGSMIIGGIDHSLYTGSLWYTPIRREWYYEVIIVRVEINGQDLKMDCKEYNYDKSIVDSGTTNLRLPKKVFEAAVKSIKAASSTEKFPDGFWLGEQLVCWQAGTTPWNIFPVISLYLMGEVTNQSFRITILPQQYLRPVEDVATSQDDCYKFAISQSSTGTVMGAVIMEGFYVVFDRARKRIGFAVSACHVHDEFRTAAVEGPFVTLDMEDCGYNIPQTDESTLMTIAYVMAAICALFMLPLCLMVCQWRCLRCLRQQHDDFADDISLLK

SMILES	IC50 [1] [nM]	IC50 (Abeta total) [nM]	melting point [°C]	IC50 (Abeta 1-42) [nM]	Cellular αLisa assay in SKNBE2 cells Abetatotal pIC50 (Abeta total)	Cellular αLisa assay in SKNBE2 cells Abeta 42 pIC50 (Abeta 1-42)	other results
COc1cncc(-c2cccc(C3(C)COCC(N)=N3)c2)c1 (racemic) [Compound 4, rac-5-[3-(5-methoxypyridin-3-yl)phenyl]-5-methyl-5,6-dihydro-2H-1,4-oxazin-3-amine]	3640	219	150	257			efflux ratio at 120 min, 1 μM (P-gp; [2]): 25.9
NC1=NC(c2cccc(NC(=O)c3ccc(Cl)cn3)c2)(C2CC2)COC1 (racemic) [Compound 153, rac-N-[3-(5-Amino-3-cyclopropyl-3,6-dihydro-2H-1,4-oxazin-3-yl)phenyl]-5-chloropyridine-2-carboxamide]	89.1	13.2	161.5	11.5			
CC1(c2cccc(-c3cc(Cl)cc(Cl)c3)c2)COCC(N)=N1 (racemic) [Compound 2, rac-5-(3′,5′-dichlorobiphenyl-3-yl)-5-methyl-5,6-dihydro-2H-1,4-oxazin-3-amine]	1910	617	197	724			
COc1cncc(-c2ccc(F)c(C3(C)N=C(N)COC3C(F)(F)F)c2)c1 (stereo not shown) [Compound 105]	1550	224	196.9	200			
CC1(c2cc(-c3cncnc3)ccc2F)N=C(N)COC1C(F)(F)F (single isomer, unassigned) [Compound 106]	4370		173.8		6.23	6.2	efflux ratio at 120 min, 1 μM (P-gp; [2]): 1.1; Papp A→B at 120 min, 1 μM (P-gp): 18.2 ×10⁻⁶ cm/s; Papp B→A at 120 min, 1 μM (P-gp): 19.8 ×10⁻⁶ cm/s
CC1(c2cccc(-c3cncnc3)c2)N=C(N)COC1F (stereo not shown) [Compound 99]	20900		204.3		5.73	5.87	
C[C@]1(c2cc(-c3cncnc3)c(F)cc2F)N=C(N)CO[C@H]1C(F)(F)F [Compound 254]	851	316	101.3	347			
CC1(c2cccc(-c3cncnc3)c2)N=C(N)COC1F (single isomer, unassigned) [Compound 94]	> 30200		115.4		5.34	5.43	
CC1(c2cc(-c3cncnc3)c(F)cc2F)N=C(N)COC1F (stereo not shown) [Compound 84]	22900	4470	195.3	3890			
C[C@]1(c2cc(-c3cncnc3)c(F)cc2F)N=C(N)CO[C@@H]1F (single isomer, unassigned) [Compound 148, (R*,R*)-5-(2,4-difluoro-5-pyrimidin-5-ylphenyl)-6-fluoro-5-methyl-5,6-dihydro-2H-1,4-oxazin-3-amine]	> 30200	> 10000	186.2	> 10000			
COc1cnc(C(=O)Nc2ccc(F)c([C@]3(C)COCC(N)=N3)c2)cn1 [Compound 39]					8.38	8.27	A to B (Apparent Permeability, Papp) (P-gp; LLC-MDR1 monolayers): 3.7 ×10⁻⁶ cm/s; B to A (Apparent Permeability, Papp) (P-gp; LLC-MDR1 monolayers): 34.2 ×10⁻⁶ cm/s
COc1cncc(-c2cccc(C3(C)N=C(N)COC3F)c2)c1 (single isomer, unassigned) [Compound 93]	468				6.97	6.98	efflux ratio at 120 min, 1 μM (P-gp; [2]): 4.6; Papp A→B at 120 min, 1 μM (P-gp): 7.4 ×10⁻⁶ cm/s; Papp B→A at 120 min, 1 μM (P-gp): 34.3 ×10⁻⁶ cm/s
C[C@]1(c2cc(-c3cncc(C#N)c3)c(F)cc2F)N=C(N)CO[C@@H]1C(F)(F)F [Compound 317]	2040	468	177.94	550			

Second part, led by results:

IC50 [1] [nM]	IC50 (Abeta total) [nM]	melting point [°C]	IC50 (Abeta 1-42) [nM]	Cellular αLisa assay in SKNBE2 cells Abetatotal pIC50 (Abeta total)	Cellular αLisa assay in SKNBE2 cells Abeta 42 pIC50 (Abeta 1-42)	SMILES	other results
26.3	13.5	200.16	13.5			C[C@]1(c2cc(NC(=O)c3ncc(Cl)cc3Cl)ccc2F)N=C(N)CO[C@@]1(F)C(F)(F)F [Compound 181]	
12000	> 10000	> 300	> 10000			C[C@]1(c2cc(-c3cncnc3)c(F)cc2F)N=C(N)CO[C@]1(F)C(F)(F)F [Compound 210]	
				7.52	7.53	CC1(c2cccc(NC(=O)c3ccc(Cl)cn3)c2)N=C(N)COC1(F)C(F)(F)F (single isomer, unassigned) [Compound 113]	Papp A→B at 120 min, 1 μM (P-gp): 9 ×10⁻⁶ cm/s; Papp B→A at 120 min, 1 μM (P-gp): 9.8 ×10⁻⁶ cm/s
407	363	198.43	363			COc1cnc(C(=O)Nc2ccc(F)c([C@@]3(C)N=C(N)CO[C@]3(F)C(F)(F)F)c2)cn1 [Compound 184]	
1000	166	175.32	170			CC1(c2cc(NC(=O)c3ccc(Cl)cn3)cc(C(F)(F)F)c2)COCC(N)=N1 (stereo not shown) [Compound 197]	
40.7	13.8	196.01	14.5			C[C@]1(c2cc(NC(=O)c3ccc(C#N)cn3)ccc2F)N=C(N)CO[C@@]1(F)C(F)(F)F [Compound 183]	
166	195	165.14	200			C[C@]1(c2cc(NC(=O)c3ncc(Cl)cc3Cl)ccc2F)N=C(N)CO[C@]1(F)C(F)(F)F [Compound 185]	
> 30200		189.29		<5	<5	CC1(c2cccc(NC(=O)c3ccncn3)c2)N=C(N)COC1(F)C(F)(F)F (single isomer, unassigned) [Compound 189]	
191				7.18	7.23	COc1cncc(-c2cccc(C3(C)N=C(N)COC3(F)C(F)(F)F)c2)c1 (single isomer, unassigned) [Compound 118]	efflux ratio at 120 min, 1 μM (P-gp; [2]): 1.3; Papp A→B at 120 min, 1 μM (P-gp): 12 ×10⁻⁶ cm/s; Papp B→A at 120 min, 1 μM (P-gp): 15 ×10⁻⁶ cm/s
6460	> 10000	145.3	> 10000			C[C@]1(c2cc(-c3cncc(Cl)c3)c(F)cc2F)N=C(N)CO[C@]1(F)C(F)(F)F [Compound 212]	
513		180.17		6.81	6.74	CC1(c2cccc(NC(=O)c3ncc(Cl)cc3F)c2)N=C(N)COC1(F)C(F)(F)F (single isomer, unassigned) [Compound 172]	
437	3720	70.1	4070			C[C@]1(c2cc(-c3cncc(Cl)c3)c(F)cc2F)N=C(N)CO[C@@]1(F)C(F)(F)F [Compound 213]	
1410	1740	62	2190			C[C@]1(c2cc(-c3cncnc3)c(F)cc2F)N=C(N)CO[C@@]1(F)C(F)(F)F [Compound 211]	
				8.45	8.34	C[C@@]1(c2cc(NC(=O)c3ccc(C#N)cn3)ccc2F)COCC(N)=N1 [Compound 43]	A to B (Apparent Permeability, Papp) (P-gp; LLC-MDR1 monolayers): 1.4 ×10⁻⁶ cm/s; B to A (Apparent Permeability, Papp) (P-gp; LLC-MDR1 monolayers): 26.6 ×10⁻⁶ cm/s; BA/AB (P-gp; [2]): 18.5; Biochemical FRET based assay pIC50 [1]: 7.14
